Test system: micellar dispersion consisting of 5 mM taurocholate, 0.6 mM oleic acid and 0.1 mM radiolabeled cholesterol
Assay: In vitro precipitation of cholesterol-carrying bile salt micelles (radioactivity in supernatant after centrifugation; turbidity at 500 nm)
Conditions: for precipitation: at the amount calculated for charge equivalence
Method: In order to determine the efficiency of specific cations, an in vitro test was used in which micelles comprising radio labeled cholesterol (cholesterol and micelles were produced according to known methods, see below) were generated. To a predetermined amount of such micelles, the respective precipitant was added in portions, and the precipitation formed upon addition of specific amounts of precipitant measured by two methods, namely by light scattering and by determination of the radioactivity in the supernatant after centrifugation.
A micellar dispersion consisting of 5 mM taurocholate, 0.6 mM oleic acid and 0.1 mM radiolabeled cholesterol was prepared as described before (Schulthess et al., J. Lipid Res. 37, 2405-19 (1996)) using Mg- and Ca-free phosphate-buffered saline (PBS) from Life Technologies, Basel, Switzerland. This stock solution was diluted by adding various amounts of precipitant in PBS, and PBS was added to a final volume of 1 ml. The mixture was shortly vortexed and incubated at room temperature for about 5 min before measuring its optical density (turbidity) at 500 nm. Precipitation (in %) was determined as follows: an aliquot of 200 µl of the incubation mixture was centrifuged for 3 min. at 100'000 g and the radioactivity of 100 µl supernatant was determined in a liquid scintillation counter. The radioactivity of 100 µl of the original mixture was also determined without centrifugation. The precipitation was determined as precipitation (%) = 100 [1-([…])] [formula] • A = radioactivity in supernatant without centrifugation • B = radioactivity in supernatant after centrifugation As a control: the precipitation (%) is determined in the absence of precipitant and a value of precipitation (%) = 2 ± 1 is obtained.

[1] = charge ratio (taurocholate/precipitant) 0.1, PBS
[2] = charge ratio (taurocholate/precipitant) 0.165, PBS
[3] = charge ratio (taurocholate/precipitant) 0.5, PBS
[4] = charge ratio (taurocholate/precipitant) 1, PBS
[5] = charge ratio (taurocholate/precipitant) 3, PBS
[6] = charge ratio (taurocholate/precipitant) 2, PBS
[7] = charge ratio (taurocholate/precipitant) 0.25, PBS
[8] = charge ratio (taurocholate/precipitant) 0.2, in PBS
[9] = charge ratio (taurocholate/precipitant) 1, in 50 mM Tris-HCl, pH=7.4
[10] = charge ratio (taurocholate/precipitant) 2, in 50 mM Tris-HCl, pH=7.4
[11] = charge ratio (taurocholate/precipitant) 5, in PBS
[12] = charge ratio (taurocholate/precipitant) 1.4 ± 0.6, PBS
[13] = charge ratio (taurocholate/precipitant) 0.3, in 10 mM Arg and 10 mM Lys
[14] = charge ratio (taurocholate/precipitant) 0.3 ± 0.1, PBS
[15] = charge ratio (taurocholate/precipitant) 0.6, in 10 mM Arg and 10 mM Lys
[16] = charge ratio (taurocholate/precipitant) 1.2 ± 0.5, PBS

Question: How did the “Precipitation (%)” value [1] turn out when `NCCCCCCN` [1,6 Hexanediamine] was run?
Answer: 0%

Question: And the “Turbidity (OD 500 nm)” value [1]?
Answer: 0 OD 500 nm

Question: What about the “Precipitation (%)” value [2] of the same molecule?
Answer: 0%

Question: And the “Turbidity (OD 500 nm)” value [2]?
Answer: 0 OD 500 nm

Question: How did the “Precipitation (%)” value [3] turn out when `NCCCCCCCCCCN` [1,10 Diaminodecane] was run?
Answer: 0%

Question: What about the “Turbidity (OD 500 nm)” value [3] of the same molecule?
Answer: 0 OD 500 nm

Question: And the “Precipitation (%)” value [4]?
Answer: 0%

Question: And the “Turbidity (OD 500 nm)” value [4]?
Answer: 0 OD 500 nm

Question: What about the “Precipitation (%)” value [5] of the same molecule?
Answer: 0%

Question: And the “Turbidity (OD 500 nm)” value [5]?
Answer: 0 OD 500 nm

Question: Which results are given for `NCCCCCCCCCCCCN` [1,12 Diaminododecane]?
Answer: Precipitation (%) (charge ratio (taurocholate/precipitant) 0.125, PBS): 100%; Turbidity (OD 500 nm) (charge ratio (taurocholate/precipitant) 0.125, PBS, maximal turbidity observed): 0.4 ± 0.05 (max) OD 500 nm; Precipitation (%) [3]: 65 ± 5%; Turbidity (OD 500 nm) [3]: 0.02 ± 0.01 OD 500 nm; Precipitation (%) [4]: 17 ± 4%; Turbidity (OD 500 nm) [4]: 0.01 ± 0.005 OD 500 nm; Precipitation (%) [6]: 13 ± 4%; Turbidity (OD 500 nm) [6]: 0.01 ± 0.005 OD 500 nm

Question: Which results are given for `N=C(N)NCCC[C@H](N)C(=O)O` [Arginine]?
Answer: Precipitation (%) [7]: 0%; Turbidity (OD 500 nm) [7]: 0 OD 500 nm; Precipitation (%) [4]: 0%; Turbidity (OD 500 nm) [4]: 0 OD 500 nm

Question: With `NCCCC[C@H](N)C(=O)O` [Lysine] as the molecule, how does the “Precipitation (%)” value [7] read?
Answer: 0%

Question: And the “Turbidity (OD 500 nm)” value [7]?
Answer: 0 OD 500 nm

Question: And the “Precipitation (%)” value [4]?
Answer: 0%

Question: What about the “Turbidity (OD 500 nm)” value [4] of the same molecule?
Answer: 0 OD 500 nm

Question: Which “Precipitation (%)” value (charge ratio (taurocholate/precipitant) 0.2, in 50 mM Tris-HCl, pH=7.4) does the source give for Ca^2+ here?
Answer: 0%

Question: And the “Turbidity (OD 500 nm)” value (charge ratio (taurocholate/precipitant) 0.2, in 50 mM Tris-HCl, pH=7.4, maximal turbidity observed)?
Answer: 0.23 ± 0.06 (max) OD 500 nm

Question: And the “Precipitation (%)” value [8]?
Answer: 100%

Question: What about the “Turbidity (OD 500 nm)” value (charge ratio (taurocholate/precipitant) 0.2, in PBS, maximal turbidity observed) of the same molecule?
Answer: 0.25 ± 0.05 (max) OD 500 nm

Question: What about the “Precipitation (%)” value [9] of the same molecule?
Answer: 0%

Question: And the “Turbidity (OD 500 nm)” value [9]?
Answer: 0.12 ± 0.03 OD 500 nm

Question: And the “Precipitation (%)” value [10]?
Answer: 0%

Question: And the “Turbidity (OD 500 nm)” value [10]?
Answer: 0.13 ± 0.03 OD 500 nm

Question: How did the “Precipitation (%)” value [8] turn out when Mg^2+ was run?
Answer: 0%

Question: And the “Turbidity (OD 500 nm)” value [8]?
Answer: 0 OD 500 nm

Question: And the “Precipitation (%)” value [11]?
Answer: 0%

Question: What about the “Turbidity (OD 500 nm)” value [11] of the same molecule?
Answer: 0 OD 500 nm

Question: Polylysine [Polylysine Mr = 2300] was tested. Which precipitation (Figure 3, equivalence point: poly K = 0.056 mM) did it give?
Answer: 100%

Question: What about the “Precipitation (%)” value (charge ratio (taurocholate/precipitant) 0.5 ± 0.1, PBS) of the same molecule?
Answer: 100%

Question: And the “Turbidity (OD 500 nm)” value (charge ratio (taurocholate/precipitant) 0.5 ± 0.1, PBS, maximal turbidity observed)?
Answer: 0.9 ± 0.1 (max) OD 500 nm

Question: What about the “Precipitation (%)” value [12] of the same molecule?
Answer: 100%

Question: And the “Turbidity (OD 500 nm)” value [12]?
Answer: 0.6 ± 0.2 OD 500 nm

Question: What does the source list for Polylysine [Polylysine Mr = 21600]?
Answer: precipitation (Figure 2, equivalence point: poly K = 0.0061 mM): 100%; Precipitation (%) [13]: 100%; Turbidity (OD 500 nm) [13]: 1.6 ± 0.2 OD 500 nm; Precipitation (%) [14]: 100%; Turbidity (OD 500 nm) [14]: 0.4 ± 0.03 OD 500 nm; Precipitation (%) [15]: 100%; Turbidity (OD 500 nm) [15]: 1.3 ± 0.1 OD 500 nm; Precipitation (%) [16]: 100%; Turbidity (OD 500 nm) [16]: 0.13 ± 0.05 OD 500 nm

Source: patent EP1090634A1, “Agents for reducing cholesterol and lipid uptake” (Hauser, Helmut, priority 1999, dated 2001)
